Data published in US4659734A, “Olinecarboxylic acid derivatives” (Nippon Shinyaku Co., Ltd., priority 1983, dated 1987).
In brackets after ≈: the same amount, converted by molar mass.

Tests used:
Escherichia coli KC-14 [1] = assay: Minimum growth inhibiting concentration, Japan Chemotherapeutic Society method; type: cell-based; settings: KC14; Escherichia coli KC-14, Gram -; read-out: Minimum Growth Inhibiting Concn
Description: (§1) The Antibacterial activity of the compounds of Examples 14, 13, 22b, 21 and 15 was determined in accordance with the method of Japan Chemotherapeutic Society (cf. Nippon Kagaku Ryoho Gakkai Shi, volume 29, number 1, pages 76 to 79, 1981) and the results are reported in Table 1, which follows.

[2] = tested on: Staphylococcus aureus Smith; assay: as above; type: cell-based; settings: Gram +, read-out: Minimum Growth Inhibiting Concn
Description: as §1

[3] = tested on: Alcaligenes faecalis ATCC 8750; assay: as above; type: cell-based; settings: ATCC8750; Alcaligenes faecalis ATCC 8750, Gram -; read-out: Minimum Growth Inhibiting Concn
Description: as §1

[4] = tested on: Pseudomonas aeruginosa E-2; assay: as above; type: cell-based; settings: E2; Pseudomonas aeruginosa E-2, Gram -; read-out: Minimum Growth Inhibiting Concn
Description: as §1

[5] = tested on: Pseudomonas aeruginosa No. 12; assay: as above; type: cell-based; settings: Pseudomonas aeruginosa No. 12, Gram -; read-out: Minimum Growth Inhibiting Concn
Description: as §1

[6] = tested on: Pseudomonas cepacia ATCC 25416; assay: as above; type: cell-based; settings: Burkholderia cepacia, ATCC25416; Pseudomonas cepacia ATCC 25416, Gram -; read-out: Minimum Growth Inhibiting Concn
Description: as §1

[7] = tested on: Serracia marcescens IFO 3736; assay: as above; type: cell-based; settings: Serracia marcescens IFO 3736, Gram -; read-out: Minimum Growth Inhibiting Concn
Description: as §1

[8] = tested on: Escherichia coli NIHJ JC-2; assay: as above; type: cell-based; settings: NIHJJC2; Escherichia coli NIHJ JC-2, Gram -; read-out: Minimum Growth Inhibiting Concn
Description: as §1

[9] = tested on: Staphylococcus aureus 209-PJC; assay: as above; type: cell-based; settings: Gram +, read-out: Minimum Growth Inhibiting Concn
Description: as §1

[10] = tested on: Micrococcus luteus ATCC 9341; assay: as above; type: cell-based; settings: ATCC9341; Micrococcus luteus ATCC 9341, Gram +; read-out: Minimum Growth Inhibiting Concn
Description: as §1

Proteus mirabilis 181 [11] = assay: as above; type: cell-based; settings: Proteus mirabilis 181, Gram -; read-out: Minimum Growth Inhibiting Concn
Description: as §1

[12] = tested on: Listeria monocytogenes RIMD 1205020; assay: as above; type: cell-based; settings: RIMD1205020; Listeria monocytogenes RIMD 1205020, Gram +; read-out: Minimum Growth Inhibiting Concn
Description: as §1

Proteus vulgaris DX-19 = assay: as above; type: cell-based; settings: DX19; Proteus vulgaris DX-19, Gram -; read-out: Minimum Growth Inhibiting Concn
Description: as §1

[13] = tested on: Pseudomonas maltophilia ATCC 13637; assay: as above; type: cell-based; settings: Stenotrophomonas maltophilia, ATCC13637; Pseudomonas maltophilia ATCC 13637, Gram -; read-out: Minimum Growth Inhibiting Concn
Description: as §1

[14] = Blood serum concentration, disc method; type: in vivo, ddY strain mice
Description: In this experiment, ddY strain mice (male; body weight 30±2 grams) were used. Sixty mg/kg of the compound of Example 22b were given per os. The blood concentration was calculated from calibration curves obtained by the disc method using Escherichia coli NIHJ strain as tested bacteria and diluting the test compound of mice serum.

Escherichia coli KC-14 [15] = assay: Mouse intraperitoneal infection, survival after one week; type: in vivo, ddY strain mice; settings: KC14, po; Escherichia coli KC-14, 5 × 10^4 per mouse; one dose per os 2 h after infection
Description: (§2) ddY--Strain mice (male; body weight 20±1 grams) of SPF were innoculated with the bacteria set forth in Table 2 by administration of a supension of the bacterial in 4% mucin solution into the abdominal cavity. A compound of the invention was given one time per os two hours after the infection, and, from the survival rate after one week. 50% effective doses (ED50) were calculated by the Behrens-Karber method.

[16] = tested on: Staphylococcus aureus Smith; assay: as above; type: in vivo, ddY strain mice; settings: po, 3 × 10^6 per mouse, one dose per os 2 h after infection
Description: as §2

[17] = tested on: Pseudomonas aeruginosa E-2; assay: as above; type: in vivo, ddY strain mice; settings: E2, po; Pseudomonas aeruginosa E-2, 2 × 10^5 per mouse; one dose per os 2 h after infection; Behrens-Karber
Description: as §2

[18] = tested on: Klebsiella pneumoniae K-1966; assay: as above; type: in vivo, ddY strain mice; settings: K1966, po; Klebsiella pneumoniae K-1966, 3 × 10^3 per mouse; one dose per os 2 h after infection
Description: as §2

Proteus mirabilis 181 [19] = assay: as above; type: in vivo, ddY strain mice; settings: po; Proteus mirabilis 181, 2 × 10^7 per mouse; one dose per os 2 h after infection
Description: as §2

Serracia marcescens T-55 = assay: as above; type: in vivo, ddY strain mice; settings: po; Serracia marcescens T-55, 5 × 10^6 per mouse; one dose per os 2 h after infection
Description: as §2

[20] = tested on: Acimetobacter calcoaceticus; assay: as above; type: in vivo, ddY strain mice; settings: po, 1 × 10^7 per mouse, one dose per os 2 h after infection
Description: as §2

[21] = tested on: Pseudomonas aeruginosa E-2; assay: Ascending urinary tract infection; type: in vivo, ICR female mice
Description: ICR Female mice (body weight 20±1 grams) of SPE strain were used in the experiments. The mice were not given any water for seventeen hours, then compulsorily urinated, anesthesized by the administration of 60 mg/kg of pentobarbital into the abdominal cavity, then 1.5×10^5 of Pseudomonas aeruginosa E-2 strain were impregnated into the bladder via the urinary tract, and the external urinary meatus was stopped for four hours by a pin clip, whereupon the mice were infected in the ascending urinary tract.
The compound of Example 22b was given once orally, 4 hours after infection, then twice a day, and the administration was continued for three days. On the fourth day, the kidney was isolated, homogenized in a physiological saline solution, and the number of bacteria was calculated on suitable medium such as, for example, Drigalski medium. If the number of bacteria per one gram of kidney was less than […], then the compound was judged as "effective".

## Cc1csc2c(C(=O)O)c(=O)c3cc(F)c(N4CCN(C)CC4)cc3n12 [Example 22b, 7-fluoro-1-methyl-8-(4-methyl-1-piperazinyl)-5-oxo-5H-thiazolo(3,2-a)-quinoline-4-carboxylic acid]
Escherichia coli KC-14 [1]
  MIC: 0.013 µg/mL (≈ 0.0346 µM)
[2]
  MIC: 0.053 µg/mL (≈ 0.141 µM)
[3]
  MIC: 0.78 µg/mL (≈ 2.08 µM)
[4]
  MIC: 0.39 µg/mL (≈ 1.04 µM)
[5]
  MIC: 0.78 µg/mL (≈ 2.08 µM)
[6]
  MIC: 0.2 µg/mL (≈ 0.533 µM)
[7]
  MIC: 0.39 µg/mL (≈ 1.04 µM)
[8]
  MIC: 0.025 µg/mL (≈ 0.0666 µM)
[9]
  MIC: 0.013 µg/mL (≈ 0.0346 µM)
[10]
  MIC: 0.78 µg/mL (≈ 2.08 µM)
Proteus mirabilis 181 [11]
  MIC: 0.2 µg/mL (≈ 0.533 µM)
[12]
  MIC: 0.2 µg/mL (≈ 0.533 µM)
Proteus vulgaris DX-19
  MIC: 0.1 µg/mL (≈ 0.266 µM)
[13]
  MIC: 0.025 µg/mL (≈ 0.0666 µM)
[14]; mouse, serum, po, 0.25 hours, 60 mg/kg per os, average ± standard error
  concentration at 0.25 h: 3400 ± 820 ng/mL
[14]; mouse, serum, po, 0.5 hours, 60 mg/kg per os, average ± standard error
  concentration at 0.5 h: 5400 ± 320 ng/mL
[14]; mouse, serum, po, 1 hour, 60 mg/kg per os, average ± standard error
  concentration at 1 h: 4200 ± 700 ng/mL
[14]; mouse, serum, po, 2 hours, 60 mg/kg per os, average ± standard error
  concentration at 2 h: 3300 ± 370 ng/mL
[14]; mouse, serum, po, 4 hours, 60 mg/kg per os, average ± standard error
  concentration at 4 h: 2500 ± 230 ng/mL
[14]; oral, mice
  blood concentration (in words): promptly gave high and sustained blood concentrations when administered orally
Escherichia coli KC-14 [15]
  ED50: 1.1 mg/kg
[16]
  ED50: 2.4 mg/kg
[17]
  ED50: 13.1 mg/kg
[18]
  ED50: 2.7 mg/kg
Proteus mirabilis 181 [19]
  ED50: 13 mg/kg
Serracia marcescens T-55
  ED50: 5.4 mg/kg
[20]
  ED50: 17.5 mg/kg
[21]; 3.13 mg/kg oral
  Number Of Mice Where Compound Was Effective/Total Mice Tested: 1/7
[21]; 6.25 mg/kg oral
  Number Of Mice Where Compound Was Effective/Total Mice Tested: 4/7
[21]; 12.5 mg/kg oral
  Number Of Mice Where Compound Was Effective/Total Mice Tested: 4/7
[21]; 25 mg/kg oral
  Number Of Mice Where Compound Was Effective/Total Mice Tested: 6/7
[21]; 50 mg/kg oral
  Number Of Mice Where Compound Was Effective/Total Mice Tested: 7/7
[21]; 100 mg/kg oral, 4 h after infection then twice a day, three days
  Number Of Mice Where Compound Was Effective/Total Mice Tested: 7/7
[21]; Pseudomonas aeruginosa, E2, in Mus musculus, 72 h, ascending urinary tract infection, oral, three days, read-out: 50% Effective Dose
  ED50: 8 mg/kg
